Calls of active or inactive are those of the source. No cut-off for these calls is given here.
Key:
THP-1 [1] = test: Cytotoxicity against human THP1 cells at 2 uM after 24 hrs by WST assay; type: cell-based; conditions: thp-1, 24 h
THP-1 [2] = test: Cytotoxicity against human THP1 cells assessed as cell viability after 24 hrs by WST assay; type: cell-based; conditions: THP-1, 24 h
THP-1 [3] = test: Cytotoxicity against human THP1 cells assessed as increase in ROS level at 2 uM; type: cell-based; conditions: thp-1, 2 µM
THP-1 [4] = test: Antiinflammatory activity in differentiated human THP1 cells assessed as inhibition of LPS-induced TNFalpha mRNA expression at 2 uM after 4 hrs by RT-qPCR analysis; type: functional, cell-based
THP-1 [5] = test: Antiinflammatory activity in differentiated human THP1 cells assessed as inhibition of LPS-induced NFkappaB activation at 2 uM pretreated for 1 hr measured after 4 hrs of LPS stimulation by DAPI-staining based immunohistochemical analysis; type: functional, cell-based
THP-1 [6] = test: Antiinflammatory activity in differentiated human THP1 cells assessed as inhibition of LPS-induced IkappaB degradation at 2 uM pretreated for 1 hr measured after 30 mins of LPS stimulation by Western blot analysis; type: functional, cell-based
THP-1 [7] = test: Antiinflammatory activity in differentiated human THP1 cells assessed as inhibition of LPS-induced TNFalpha secretion at 2 uM after 24 hrs by ELISA; type: functional, cell-based
THP-1 [8] = test: Antiinflammatory activity in differentiated human THP1 cells assessed as inhibition of LPS-induced ROS level at 2 uM pretreated for 1 hr measured after 24 hrs of LPS stimulation by fluorescence assay; type: functional, cell-based

Row | SMILES | Activity (THP-1 [1]) | IC50 (THP-1 [2]) | Activity (THP-1 [3]) | Activity (THP-1 [4]) | Activity (THP-1 [5]) | Activity (THP-1 [6]) | Activity (THP-1 [7]) | Activity (THP-1 [8])
1 | COC(C)(C)C(O)CC/C(C)=C/Cc1c(O)cc2c(c1O)C(=O)C[C@@H](c1ccc(O)cc1)O2 (stereo partly drawn) | Non-toxic | > 10 µM | – | – | – | – | – | –
2 | CC(C)=CCCC(C)(O)C1Cc2c(cc3c(c2O)C(=O)CC(c2ccc(O)cc2)O3)O1 (stereo not drawn) | Non-toxic | > 10 µM | – | – | – | – | – | –
3 | COc1cc(C2CC(=O)c3c(cc(O)c(C/C=C(\C)CCC(O)C(C)(C)OC)c3O)O2)cc(OC)c1O (stereo not drawn) | Non-toxic | > 10 µM | – | – | – | – | – | –
4 | CC(C)=CCC/C(C)=C/Cc1c(O)cc2c(c1O)C(=O)C[C@@H](c1ccc(O)cc1)O2 [BONANNIONE A] | Non-toxic | < 10 µM | – | – | – | – | – | –
5 | C=C(CCC=C(C)C)C(O)Cc1c(O)cc2c(c1O)C(=O)C[C@@H](c1ccc(O)cc1)O2 (stereo partly drawn) | Non-toxic | > 11.4 µM | Toxic | Active | Active | Active | Active | –
6 | C/C(=C\Cc1c(O)cc2c(c1O)C(=O)C[C@@H](c1ccc(O)cc1)O2)CCC(O)C(C)(C)O (stereo partly drawn) | Non-toxic | > 10 µM | – | – | – | – | – | –
7 | C=C(CCC=C(C)C)C(O)Cc1c(O)cc2c(c1O)C(=O)C[C@@H](c1ccc(O)c(OC)c1)O2 (stereo partly drawn) | Non-toxic | < 6.5 µM | – | – | – | – | – | –
8 | C=C(C)C1CCC(C)(C(O)Cc2c(O)cc3c(c2O)C(=O)C[C@@H](c2ccc(O)c(OC)c2)O3)O1 (stereo partly drawn) | Non-toxic | > 10 µM | – | – | – | – | – | –
9 | COc1cc([C@@H]2CC(=O)c3c(cc4c(c3O)CC(C(C)(O)CCC=C(C)C)O4)O2)ccc1O (stereo partly drawn) | Non-toxic | < 10 µM | – | – | – | – | – | –
10 | COc1cc([C@@H]2CC(=O)c3c(cc(O)c(C/C=C(\C)CCC=C(C)C)c3O)O2)cc(OC)c1O | Non-toxic | < 10 µM | – | – | – | – | Active | –
11 | COc1cc([C@@H]2CC(=O)c3c(cc(O)c(C/C=C(\C)CCC=C(C)C)c3O)O2)cc(O)c1OC | Non-toxic | < 10 µM | – | Active | Active | Active | – | –
12 | CC(C)=CCC/C(C)=C/Cc1c(O)cc2c(c1O)C(=O)C[C@@H](c1ccc(O)c(O)c1)O2 [NYMPHAEOL A] | Non-toxic | > 10 µM | – | Active | Active | Active | – | inactive
13 | COc1ccc([C@@H]2CC(=O)c3c(cc(O)c(C/C=C(\C)CCC=C(C)C)c3O)O2)cc1OC | Non-toxic | < 10 µM | – | – | – | – | Active | –
14 | O=C1C[C@@H](c2ccc(O)cc2)Oc2cc(O)cc(O)c21 [NARINGENIN] | Non-toxic | > 10 µM | – | – | – | – | – | –
15 | COc1cc([C@H]2Oc3cc(O)c(C/C=C(\C)CCC=C(C)C)c(O)c3C(=O)[C@@H]2O)ccc1O | Non-toxic | < 10 µM | – | – | – | – | Active | –
16 | COc1cc([C@@H]2CC(=O)c3c(cc(O)c(C/C=C(\C)CCC(O)C(C)(C)OC)c3O)O2)ccc1O (stereo partly drawn) | Non-toxic | > 10 µM | – | – | – | – | – | –
17 | COc1cc([C@@H]2CC(=O)c3c(cc(O)c(C/C=C(\C)CCC=C(C)C)c3O)O2)ccc1O | Non-toxic | < 10 µM | – | Active | Active | Active | Active | inactive
18 | COc1cc([C@@H]2CC(=O)c3c(O)cc(O)cc3O2)cc(OC)c1OC | Non-toxic | > 10 µM | – | – | – | – | – | –
19 | COc1cc([C@@H]2CC(=O)c3c(cc(O)c(C/C=C(\C)C/C=C/C(C)(C)O)c3O)O2)ccc1O [TOMENTODIPLACONE B] | Non-toxic | > 10 µM | – | – | – | – | Active | –
20 | COc1cc(C2CC(=O)c3c(cc(O)c(C/C=C(\C)CCC(O)C(C)(C)O)c3O)O2)cc(OC)c1O (stereo not drawn) | Non-toxic | > 10 µM | – | – | – | – | – | –
21 | COc1cc([C@@H]2CC(=O)c3c(cc(O)c(CC=C(C)C)c3O)O2)ccc1O | Non-toxic | > 10 µM | – | – | – | – | – | –
22 | CC(C)=CCCC1(C)C=Cc2c(cc3c(c2O)C(=O)C[C@@H](c2cc(O)cc(O)c2)O3)O1 (stereo partly drawn) | Non-toxic | > 10 µM | – | – | – | – | – | –
23 | O=C1C[C@@H](c2ccc(O)c(O)c2)Oc2cc(O)cc(O)c21 [ERIODICTYOL] | Non-toxic | > 10 µM | – | – | – | – | – | –
24 | COc1cc([C@@H]2CC(=O)c3c(cc4c(c3O)CC(O)C(C)(CCC=C(C)C)O4)O2)ccc1O (stereo partly drawn) | Non-toxic | < 10 µM | Toxic | Active | Active | Active | Active | inactive
25 | COc1cc([C@H]2Oc3cc4c(c(O)c3C(=O)[C@@H]2O)C=CC(C)(CCC=C(C)C)O4)ccc1O (stereo partly drawn) | Non-toxic | > 10 µM | – | – | – | – | Active | –

— ChEMBL document CHEMBL3580543, “C-Geranylated Flavanones from Paulownia tomentosa Fruits as Potential Anti-inflammatory Compounds Acting via Inhibition of TNF-α Production” (J Nat Prod, 2015)
